Source: US20190307749A1, “Mitochondria-Division Inhibitor 1 Protects Against Amyloid-B Induced Mitochondrial Fragmentation and Synaptic Damage in Alzheimer's Disease” (Texas Tech University System, priority 2018, published 2019)

Legend:
[1] = system: mouse neuroblastoma (N2a) cells; assay: Quantitative real-time RT-PCR: mRNA expression of mitochondrial dynamics, biogenesis and synaptic genes; assay type: cell-based; conditions: N2a cells + Aβ42; Mdivi1 given before (preventive) vs after (curative) Aβ42; mRNA and protein data
Method: (§1) Tissue culture: The N2a cells were grown for 3 days in a serum-free medium (1:1 mixture of DMEM and OptiMEM, plus penicillin and streptomycin [Invitrogen, Carlsbad, Calif., USA]) until the cells developed neuronal processes.
Quantitative real-time RT-PCR: Using the reagent TriZol (Invitrogen), total RNA was isolated from cell pellets from the 5 N2a cell groups (FIG. 1). Using primer express software (Applied Biosystems, Carlsbad, Calif., USA), the inventors designed the oligonucleotide primers for the housekeeping genes 3-actin, GAPDH, mitochondrial structural genes, fission genes (Drp1, Fis1), fusion genes (MFN1, MFN2, Opa1), biogenesis genes (PGC1c, Nrf1, Nrf2, TFAM), and synaptic genes (synaptophysin and PSD95) (see Table 1 for primer sequences and amplicon sizes). Using SYBR-Green chemistry-based quantitative real-time RT-PCR, mRNA expressions of the above-mentioned genes were measured, as described by Manczak and Reddy.
The mRNA transcript level was normalized against β-actin and the GAPDH at each dilution. The standard curve was the normalized mRNA transcript level, plotted against the log-value of the input cDNA concentration at each dilution. To compare β-actin, GAPDH, and relative quantification was performed according to the (CT) method (Applied Biosystems). […] The ΔCT-value was obtained by subtracting the average β-actin CT value from the average CT-value of the synaptic mitochondrial ETC genes and the mitochondrial structural genes. The ΔCT of untreated cells was used as the calibrator. The fold change was calculated according to the formula 2^-(Δ ΔCT), where ΔΔCT is the difference between ΔCT and the ΔCT calibrator value. To determine the statistical significance of mRNA expression, the CT value differences between the untreated cells and other experimental groups of cells were used in relation to β-actin normalization. Statistical significance was calculated, using one-way ANOVA.

[2] = system: mouse neuroblastoma (N2a) cells; assay: Immunoblotting analysis of mitochondrial dynamics, biogenesis and synaptic proteins; assay type: cell-based; conditions: Mdivi1 24 hrs or Aβ42 20 μM 6 hrs alone, vs untreated N2a cells
Method: as §1
Twenty g of protein was resolved from each group of cells on a 4-12% Nu-PAGE gel (Invitrogen). The resolved proteins were transferred to […] (Novax Inc., San Diego, Calif., USA) and were then incubated for 1 hour at room temperature with a blocking buffer (5% dry milk dissolved in a TBST buffer). The PVDF membranes were incubated overnight with primary antibodies (see Table 2) and washed 3 times with a TBST buffer at 10-minute intervals. They were then incubated for 2 hours with appropriate secondary antibodies, followed by 3 additional washes at 10-minute intervals. Mitochondrial and synaptic proteins were detected with cheminilumniscence reagents (Pierce Biotechnology, Rockford, Ill., USA), and the bands from immunoblots were quantified on a Kodak scanner, following manufacturer's instructions (ID Image Analysis Software, Kodak Digital Science, Kennesaw, Ga., USA), and the gel images were analyzed from gel images captured with a Kodak digital science CD camera. The lanes were marked to define the positions and specific regions of the bands. An ID fine-band command was used to locate and to scan the bands in each lane and to record the readings.

[3] = system: N2a cells; assay: H2O2 production (Amplex Red H2O2 assay); assay type: cell-based, mouse; conditions: Mdivi1 24 hrs or Aβ42 20 μM 6 hrs alone, vs untreated N2a cells
Method: as §1
Mitochondrial functional assays. H2O2 production: Using an Amplex® Red H2O2 assay kit (Molecular Probes, Eugene, Oreg., USA), H2O2 production was measured using cell pellets, as described in Manczak and Reddy. Briefly, H2O2 production was measured in the protein lysates prepared from cell pellets of control untreated N2a cells and 4 treatment groups (FIG. 1). A BCA protein assay kit (Pierce Biotechnology) was used to estimate protein concentration. The reaction mixture contained mitochondrial proteins (μg/μl), Amplex Red reagents (50 μM), horseradish peroxidase (0.1 U/ml), and a reaction buffer (1×). The mixture was incubated at room temperature for 30 minutes, followed by spectrophotometer readings of fluorescence (570 nm). Finally, H2O2 production was determined, using a standard curve equation expressed in nmol/μg mitochondrial protein.

[4] = system: N2a cells; assay: Lipid peroxidation assay (4-hydroxy-2-nonenol, HNE-His ELISA); assay type: cell-based, mouse; conditions: Mdivi1 24 hrs or Aβ42 20 μM 6 hrs alone, vs untreated N2a cells
Method: as §1
Lipid peroxidation assay: Lipid peroxidates are unstable indicators of oxidative stress in the brain. The final product of lipid peroxidation is 4-hydroxy-2-nonenol (HNE), which was measured in the N2a cell lysates prepared from cell pellets of control and treatment groups. The inventors used an HNE-His ELISA kit (Cell BioLabs, Inc., San Diego, Calif., USA), as described in Manczak and Reddy. Briefly, freshly prepared protein as added to a 96-well protein binding plate and incubated overnight at 4° C. The protein then washed 3 times with a buffer. After the last wash, the anti-HNE-His antibody was added to the protein in the wells, incubated for 2 hours at room temperature, and then washed again 3 times. The samples were then incubated with a secondary antibody conjugated with peroxidase for 2 hours at room temperature, followed by incubation with an enzyme substrate. Optical density was measured (at 450 nm) to quantify the level of HNE.

[5] = system: N2a cells; assay: Cytochrome c oxidase activity; assay type: cell-based, mouse; conditions: Mdivi1 24 hrs or Aβ42 20 μM 6 hrs alone, vs untreated N2a cells
Method: as §1
Cytochrome c oxidase activity: Cytochrome oxidase activity was measured in each of the 5 groups of N2a cells. Enzyme activity was assayed spectrophotometrically using a Sigma Kit (Sigma-Aldrich) following manufacturer's instructions. […] The decrease in absorbance at […] was recorded for 1-min reactions at 10-sec intervals. Cytochrome oxidase activity was measured according to the following formula: mU/mg total mitochondrial protein=(A/min sample−(A/min blank)×1.1 mg protein×21.84). The protein concentrations were determined following the BCA method.

[6] = system: N2a cell mitochondria; assay: Mitochondrial ATP levels (luciferase bioluminescence); assay type: cell-based, mouse; conditions: N2a cells; Mdivi1 24 hrs or Aβ42 20 μM 6 hrs alone; vs untreated N2a cells
Method: as §1
ATP levels: ATP levels were measured in N2a cell mitochondria from the treatment groups using an ATP determination kit (Molecular Probes). A bioluminescence assay was used, based on the reaction of ATP with recombinant firefly luciferase and its substract luciferin. Luciferase catalyzes the formation of light from ATP and luciferin. It is the emitted light that is linearly related to the concentration of ATP, which is measured with a luminometer. ATP levels were measured from mitochondrial pellets using a standard curve method.

[7] = system: N2a cells; assay: Cell viability (MTT assay); assay type: cell-based, mouse; conditions: Mdivi1 24 hrs or Aβ42 20 μM 6 hrs alone, vs untreated N2a cells
Method: as §1
The N2a cells from all 5 groups (4 treatment groups and 1 control group) were harvested, and their cell pellets were collected and used for quantitative real-time RT-PCR, immunoblotting analysis of mitochondrial and synaptic proteins, and mitochondrial functional assays for hydrogen peroxide production, lipid peroxidation, cytochrome c oxidase activity, and MTT determination. Isolated mitochondria from N2a cells from all 5 groups were used to determine mitochondrial ATP as described in Reddy et al..

## O=c1c2ccccc2[nH]c(=S)n1-c1cc(O)c(Cl)cc1Cl [water soluble Mdivi1, 3-(2,4-dichloro-5-hydroxyphenyl)-2-thioxo-2,3-dihydroquinazolin-4(1H)-one]
[1]
  Protective effects against Aβ42, pre-treated vs post-treated cells: stronger in pre-treated cells than post-treated cells

## Aβ42: Aβ42 peptide purchased from Anaspec, used to induce mitochondrial and synaptic toxicity in N2a cells
[2]
  Drp1 protein level: significantly higher
  Fis1 protein level: significantly higher
  Mfn1 protein level: significantly lower
  Mfn2 protein level: significantly lower
  Nrf1 protein level: Significantly lower
  Nrf2 protein level: Significantly lower
  Opa1 protein level: significantly lower
  PGC1α protein level: Significantly lower
  PSD95 protein level: significantly lower
  Synaptophysin protein level: significantly lower
[2]; listed as Aβ
  PSD95 protein level: significantly higher
  Synaptophysin protein level: significantly higher
[3]
  H2O2 levels: significantly increased
[4]
  Lipid peroxidation levels (4-hydroxy-2-nonenol): Significantly higher
[5]
  Cytochrome oxidase activity: Significantly lower
[6]
  Mitochondrial ATP levels: Significantly lower
[7]
  Cell viability: Significantly lower
